# Experimental data from patent US10993950B2, “Medical device for the treatment of HPV cutaneous infections” (Poli MD S.R.L., priority 2017, dated 2021).
# Test system: SkinEthic RHE/S/17 reconstituted human epidermis
# Test: TEM ultrastructure of artificial constructs of human skin (SkinEthic) after treatment with ASA compositions
# Type: cell-based
# Experimental: Experiments Comparing Different ASA-Containing Compositions on the Ultrastructure of Artificial Constructs of Human Skin (SkinEthic)
# Artificial Constructs of Human Skin
# SkinEthic™ RHE/S/17 reconstituted human epidermis samples were used. This is an in vitro reconstituted human epidermis from normal human keratinocytes grown on a polycarbonate filter at the air-liquid interface.
# The tissue samples were removed from the protective agarose and incubated in a multiwell with 6 wells with 1 ml of maintenance medium per well.
# After about 14 hours of incubation with the described-above compositions, the epidermis inserts were cut and fixed in 500 microliters of fixative (glutaraldehyde 2.5%, paraformaldehyde 2% in cacodylate buffer 0.1 M at pH 7.4) for 2 hours at room temperature.
# After trimming small rectangles of fabric, the samples were included in an epoxy resin. Ultra-thin slices were obtained and placed on copper screens, then stained with uranyl acetate and lead citrate.
structure (smiles),measurement,setting,value
"CC(O)CO (stereo not drawn) [Composition 3, propylene glycol]","overall appearance of the basal, spinous and granular layers (TEM)",,preserved and similar to the control
same,N. of corneocyte layers left after treatment,"about 14 hours of incubation, TEM, not-treated control >25",19-20
same,efficacy as judged from corneocyte layers left,verbal rating of Table 1 data,poor efficacy
